Measured values taken from US10130602B2, “Use of L-carnitine, salts and derivatives thereof for reducing or preventing fatigue and improving cognitive function” (priority 2011, dated 2018).

Assays:
Assay type in all cases: in vivo, human
[1] = tested on: healthy, young male and female adults; assay: Cognitive Demand Battery (CDB), overall performance; settings: for Beneficial effect on fatigue / cognitive function, overall statement: general statement, preliminary findings for acetyl-L-carnitine
Excerpt: The working hypothesis underlying this approach is that neural activity is costly in terms of local neural resources (e.g. metabolic substrates) and that the brain is therefore liable to suffer deficiencies in the short term. Any psychoactive properties of a test substance are therefore liable to be more readily apparent during this period of intense cognitive demand and the ‘mental fatigue’ state elicited by prolonged task performance. This paradigm may therefore be more sensitive than the use of less demanding cognitive tasks, particularly if an intervention has an impact on the delivery or utilisation of metabolic substrates.
(§1) In the current double-blind, placebo-controlled, balanced cross-over experiment we assessed the effects of single doses of LC (500 mg and 2000 mg) and ALC (1000 mg), administered on separate occasions, on mental fatigue and cognitive function during extended performance of mentally demanding tasks in healthy, young male and female adults.
(§2) 20 healthy adults (10 male, 10 female, 18 to 25 years) who had not taken prescription or illicit drugs or any food supplements within the preceding 4 weeks were recruited. Smokers and excessive consumers of caffeine were excluded, as were those who had consumed alcohol or caffeine within the 12 hours prior to a testing session.
Each participant received each treatment in an order counterbalanced by random allocation to a Latin square. Depending on the condition to which the participant was allocated on each day they received 4 capsules containing either 500 mg LC or 500 mg ALC or a placebo which were combined to give a total dose of either:
(§3) The objective of this battery is to assess the impact of a treatment on speed/accuracy and mental fatigue during continuous performance of cognitively demanding tasks. […] The 10 minute battery comprises:
(§4) Following the introductory visit participants attended the laboratory at 8.30 am on four further occasions, one week apart, receiving a different treatment on each occasion. They fasted (no food or drink except for water) and consumed no caffeine or alcohol for at least 12 hours prior to each session. On their first study day participants were randomly allocated to a treatment regime on the Latin square. On arrival on each occasion participants consumed a standard breakfast (40 g Kellogg's All-bran with 150 ml skimmed milk and a glass of water) following which they undertook an initial cognitive/mood assessment comprising completion of the attention tasks (‘Simple’/‘Choice’/‘Four choice’ reaction time) followed by 2 completions of the 10 minute CDB tasks (the first completion was a practice and the second was used for baseline assessment of performance) and the Stroop and Logical Reasoning tasks. They then consumed their treatment for that day. At 120 minutes post-dose they completed the attention tasks then commenced the full 60 minute (i.e. 6 completions of the 10 minutes of tasks) CDB. […] Mood was assessed with Bond-Lader mood scales pre-treatment and before and after the post-treatment cognitive assessment. […]
(§5) Statistical analysis for all of the cognitive/fatigue and mood measures derived from the battery were analysed by repeated measures Analysis of Variance (ANOVA) of baseline adjusted data (calculated against pre-dose). Measures with a single post-dose repetition (attention tasks, executive tasks) were analysed by one way ANOVA (condition). Measures with multiple post-dose repetitions (Mood, CDB) were analysed with two way ANOVA (condition×repetition). […]

[2] = tested on: healthy, young male and female adults; assay: Bond-Lader mood scales
Protocol: as §1, §2
Prior to and following the tasks mood was assessed with Bond and Lader scales. This measure has been utilised in numerous pharmacological, psychopharmacological and medical trials. The scales comprise a total of sixteen lines (approximately 100 mm on screen) anchored at either end by antonyms (e.g. alert-drowsy, calm-excited). Subjects indicate their current subjective position between the antonyms on the line. Individual item scores were calculated as % distance along the line. Outcomes comprised three factor analysis derived scores: ‘Alertness’, ‘Calmness’ and ‘Contentment’.
(§6) Following the introductory visit participants attended the laboratory at 8.30 am on four further occasions, one week apart, receiving a different treatment on each occasion. They fasted (no food or drink except for water) and consumed no caffeine or alcohol for at least 12 hours prior to each session. On their first study day participants were randomly allocated to a treatment regime on the Latin square. On arrival on each occasion participants consumed a standard breakfast (40 g Kellogg's All-bran with 150 ml skimmed milk and a glass of water) following which they undertook an initial cognitive/mood assessment comprising completion of the attention tasks (‘Simple’/‘Choice’/‘Four choice’ reaction time) followed by 2 completions of the 10 minute CDB tasks (the first completion was a practice and the second was used for baseline assessment of performance) and the Stroop and Logical Reasoning tasks. They then consumed their treatment for that day. At 120 minutes post-dose they completed the attention tasks then commenced the full 60 minute (i.e. 6 completions of the 10 minutes of tasks) CDB. Following completion of the CDB participants completed the ‘Logical Reasoning’ and the ‘Stroop’ executive function tasks. Mood was assessed with Bond-Lader mood scales pre-treatment and before and after the post-treatment cognitive assessment. The set-up is shown schematically in FIG. 1.
(§7) Statistical analysis for all of the cognitive/fatigue and mood measures derived from the battery were analysed by repeated measures Analysis of Variance (ANOVA) of baseline adjusted data (calculated against pre-dose). Measures with a single post-dose repetition (attention tasks, executive tasks) were analysed by one way ANOVA (condition). Measures with multiple post-dose repetitions (Mood, CDB) were analysed with two way ANOVA (condition×repetition). Planned comparisons (placebo versus each active treatment) were then undertaken on baseline adjusted data from the single completion, or each of the multiple completions, as appropriate, utilising t-tests with Mean Squares Error from the ANOVA (Keppel 1991).

[3] = tested on: healthy male and female individuals aged between 20 and 40 years; assay: CogState 12 minute Early Phase cognitive test battery
Protocol: Effects of carnitine on cognitive function were studied with a CogState™ 12 minute Early Phase cognitive test battery. The test was developed by CogState, US, and is described in U.S. Pat. No. 7,163,513 B2. The test uses playing cards and computer mazes for measuring the cognitive domains of executive function, psychomotor function, visual attention and visual learning. Tasks correspond to cognitive domains as follows: Maze learning task. […] It was carried out with 20 healthy male and female individuals aged between 20 and 40 years. The test was double-blind and placebo-controlled and studied effects of 500 mg L-carnitine, administered as 736 mg L-carnitine L-tartrate (Carnipure™ tartrate, Lonza AG) in water in a single dose. A single test battery of about 10 min comprised maze learning task, a detection task with playing cards, an identification task with playing cards and a one card learning task. Consecutive accomplishing of the test battery took place twice prior to and hourly after intake of the study preparation over a period of 6 hours.

[4] = tested on: healthy, young male and female adults; assay: Cognitive Demand Battery: Serial Threes subtractions
Protocol: as §1, §2, §3
Modified, two minute, computerised versions of the Serial Threes and Serial Sevens tests were utilised. For both tasks a standard instruction screen informed the participant to count backwards in threes or sevens from the given randomly generated number, as quickly and accurately as possible, using the linear number keys to enter each response. Participants were also instructed verbally that if they made a mistake they should continue subtracting from the new, incorrect number. Each three-digit response was entered using the linear number keys on the keyboard with each digit being represented on screen by an asterisk. Pressing the enter key signals the end of each response and clears the three asterisks from the screen. The task was scored for total number of subtractions and number of errors. In the case of incorrect responses, subsequent responses were scored as positive if they were correct in relation to the new number.
as §4, §5

[5] = tested on: healthy, young male and female adults; assay: Cognitive Demand Battery: subjective 'mental fatigue' scale
Protocol: as §1, §2, §3
At the end of each set of tasks participants were asked to indicate how mentally fatigued they felt by marking a 100 mm line with the end-points labelled “not at all” and “extremely”.
as §4, §5

[6] = tested on: healthy, young male and female adults; assay: Cognitive Demand Battery: Serial Sevens subtractions
Protocol: as §1, §2, §3
Modified, two minute, computerised versions of the Serial Threes and Serial Sevens tests were utilised. […] The task was scored for total number of subtractions and number of errors. In the case of incorrect responses, subsequent responses were scored as positive if they were correct in relation to the new number.
Following the introductory visit participants attended the laboratory at 8.30 am on four further occasions, one week apart, receiving a different treatment on each occasion. […] Mood was assessed with Bond-Lader mood scales pre-treatment and before and after the post-treatment cognitive assessment. […]
as §5

[7] = tested on: healthy, young male and female adults; assay: Cognitive Demand Battery: Rapid Visual Information Processing task (RVIP)
Protocol: as §1, §2, §3
The participants monitored a continuous series of digits for targets of three consecutive odd or three consecutive even digits. The digits were presented at the rate of 100 per minute and the participants responded to the detection of a target string by pressing a response key as quickly as possible. The task is continuous and lasts for 5 minutes, with 8 correct target strings being presented in each minute. The task was scored for percentage of target strings correctly detected, average reaction time for correct detections, and number of false alarms.
as §6, §7

[8] = 500 mg single dose in water, hourly over 6 hours

Compound: CC(=O)O[C@H](CC(=O)[O-])C[N+](C)(C)C [ALC, acetyl-L-carnitine]
- Performance of the CDB in comparison to placebo ([1]; 1000 mg single dose): no evidence of benefits
- Beneficial effect on fatigue / cognitive function, overall statement [1]: at best moderate
- Bond-Lader content rating compared to placebo ([2]; 1000 mg single dose, after the post-dose tasks, p=0.015): less content
- Bond-Lader content rating compared to placebo ([2]; 1000 mg single dose, before the post-dose tasks, p=0.001): less content
- Bond-Lader alert rating compared to placebo ([2]; 1000 mg single dose, before undertaking the post-dose tasks, p=0.009): less alert
- Bond-Lader alertness (summary of findings) ([2]; 1000 mg single dose, second post-dose time-point as printed): lower levels of alertness

Compound: C[N+](C)(C)C[C@H](O)CC(=O)[O-] [LC, L-carnitine]
- Psychomotor function (detection task) ([3]; 500 mg single dose in water, after four, five and six hours): decrease of psychomotor function
- Higher cognitive processes, such as memory and executive function ([3]; 500 mg single dose in water, at the time of decreased psychomotor function (4-6 hours)): not impaired
- Visual attentional function (identification task) [3, 8]: no significant effect
- Visual learning (one card learning task) [3, 8]: no significant effect
- Executive function (maze learning task) ([3]; 500 mg single dose in water, two hours after intake, individuals without fatigue): some evidence for a short-acting benefit
- Long time improvement of cognitive function ([3]; 500 mg single dose, beyond approximately two hours): not observed
- Performance of the CDB in comparison to placebo ([1]; 500 mg single dose, planned comparisons): significant improvements in performance of the CDB
- Performance of the CDB in comparison to placebo ([1]; 2000 mg single dose): no evidence of benefits
- Beneficial effect on fatigue / cognitive function, overall statement [1]: pronounced
- Serial 3s number of subtractions compared to placebo ([4]; 500 mg single dose, 2nd repetition, p=0.08): statistical trends towards the same effect
- Serial 3s number of subtractions compared to placebo ([4]; 500 mg single dose, 3rd repetition, p=0.09): statistical trends towards the same effect
- Serial 3s number of subtractions compared to placebo ([4]; 500 mg single dose, 4th repetition, planned comparison p=0.006): more subtractions
- Serial 3s number of subtractions compared to placebo ([4]; 500 mg single dose, 6th repetition, p=0.016): more subtractions
- Serial 3s number of subtractions compared to placebo ([4]; 2000 mg single dose, 5th repetition, p=0.04, may be type 1 error): more subtractions
- Bond-Lader content rating compared to placebo ([2]; 500 mg single dose, first (pre-task) post-dose assessment, p=0.004): less content
- Bond-Lader calm rating compared to placebo ([2]; 500 mg single dose, first (pre-task) post-dose assessment, p=0.037): less calm
- Bond-Lader calm rating compared to placebo ([2]; 500 mg single dose, post task assessment, p=0.016): more calm
- Subjective mental fatigue rating compared to placebo ([5]; 500 mg single dose, 4th repetition, p=0.065): trend towards the same effect
- Subjective mental fatigue rating compared to placebo ([5]; 500 mg single dose, 6th repetition, p=0.033): ratings of fatigue were lower
- Subjective mental fatigue rating compared to placebo ([5]; 500 mg single dose, after each repetition, numerical, significant only after the last set): numerically less ‘mentally fatigued’
- Subjective mental fatigue rating compared to placebo ([5]; 2000 mg single dose, 5th repetition, p=0.02): higher than placebo
- Serial 7s number of subtractions compared to placebo ([6]; 500 mg single dose, 2nd repetition, p=0.044): more subtractions
- Serial 7s number of subtractions compared to placebo ([6]; 500 mg single dose, 4th repetition, p=0.018): more subtractions
- Serial 7s number of subtractions compared to placebo ([6]; 2000 mg single dose, 4th repetition, p=0.053): trend towards more subtractions
- RVIP accuracy compared to placebo ([7]; 500 mg single dose, 2nd repetition, p=0.015): outperformed placebo
- RVIP speed of responses compared to placebo ([7]; 500 mg single dose, 3rd repetition, p=0.013): performed faster
- RVIP accuracy compared to placebo ([7]; 500 mg single dose, 3rd repetition, p=0.036): outperformed placebo
- RVIP accuracy compared to placebo ([7]; 500 mg single dose, 4th repetition, p=0.07): trend towards the same effect
- RVIP speed of responses compared to placebo ([7]; 500 mg single dose, each of 6 repetitions, significant only at the 3rd): performed faster at each repetition
- RVIP speed of responses compared to placebo ([7]; 2000 mg single dose, 4th repetition, p=0.089): trend towards slower responding
